Results published in the NIST ThermoML archive (doi:10.1016/j.fluid.2005.09.011).

Conditions: Liquid; for mass density: 101.33 kPa

FC(F)C(F)(F)C(F)(F)C(F)(F)C(F)(F)C(F)(F)C(F)(F)C(F)F [1,1,2,2,3,3,4,4,5,5,6,6,7,7,8,8-hexadecafluorooctane]
Conditions | mass density [kg/m3] | vapor or sublimation pressure [kPa]
288.15 K | 1775.3 | –
289.31 K | – | 0.55
293.15 K | 1764.4 | –
293.26 K | – | 0.75
298.15 K | 1753.4 | –
298.2 K | – | 0.99
303.15 K | 1742.4 | –
303.18 K | – | 1.43
308.15 K | 1731.3 | –
308.17 K | – | 1.92
313.15 K | 1720.2 | –
313.18 K | – | 2.49
318.14 K | – | 3.12
323.15 K | – | 4.07
328.15 K | – | 5.26
333.14 K | – | 6.64
